Reference: patent publication US20210386721A1, “SUBSTITUTED PHENYLPROPENYL PYRIDINE DERIVATIVES, THEIR PREPARATION AND PHARMACEUTICAL APPLICATIONS” (SHANGHAI HAIYAN PHARMACEUTICAL TECHNOLOGY CO., LTD., priority 2019, published 2021)

Experiments:
PD-1/PD-L1 = biological target: T1, PD-1/PD-L1 (Homo sapiens, UniProt Q9NZQ7); assay: PD-1/PD-L1 binding assay (HTRF, PPI-HTRF); details: HTRF PD1/PD-L1 binding assay kit; 10 nM Tag1-PD-L1; 25° C.
T1 construct: purchased Cisbio 63ADK000CPDPEB
How it was run: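 HTRF binding assay: compound was mixed with tagged proteins at final concentrations of 10 nM Tag1-PD-L1 and 2 nM PD1 for 15 min at 25 °C. Anti-Tag1-Eu³⁺ and anti-Tag2-XL665 antibodies were then added for 16 h at 25 °C. IC50 was derived from the 665/620 nm emission ratio.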

[1] = tested on: Jurkat T(PD1 Luc-)/CHOK1(PDL-1); assay: Jurkat T(PD1 Luc-)/CHOK1(PDL-1) cell experiment (luciferase reporter); format: cell-based; details: CHO/PD-L1-OKT3 cells co-cultured with Jurkat/PD1-NFAT-Luc cells for 6 hours; Bio-Glo luciferase signal
Experimental: Assay 2 Jurkat T(PD1 Luc-)/CHOK1(PDL-1) Cell Experiment
G418, Sangon Biotech #A100859-0001, Cat Number G108BA0003, 5 ml of deionized water being added into each bottle, store at 4° C.
CHO/PD-L1-OKT3 cells (constructed by referring to Promega's PD-1/PD-L1 Blockade Bioassays system) cultured in F-12K medium (containing 10% FBS, 800 ug/ml G418, 400 ug/ml D Hygromycin B) were planted into a 96-well plate at 2×10^4 per well, and incubated for 24 hours at 37° C. and 5% CO2. part of the medium was removed, and the test compound dissolved in DMSO with a final concentration of 1 uM was added, and DMSO at the same concentration was added into the control cells. Jurkat/PD1-NFAT-Luc cells (constructed by referring to Promega's PD-1/PD-L1 Blockade Bioassays system) were added at 5×10^5 per well at the same time, and cultured for 6 hours. The corresponding luciferase signal was detected by Bio-Glo™ (Promega, G7940) reagent. The EC50 of each compound to be tested was calculated through the non-linear regression of XLfit software.

T1 sequence (Q9NZQ7 19-238 limits assumed): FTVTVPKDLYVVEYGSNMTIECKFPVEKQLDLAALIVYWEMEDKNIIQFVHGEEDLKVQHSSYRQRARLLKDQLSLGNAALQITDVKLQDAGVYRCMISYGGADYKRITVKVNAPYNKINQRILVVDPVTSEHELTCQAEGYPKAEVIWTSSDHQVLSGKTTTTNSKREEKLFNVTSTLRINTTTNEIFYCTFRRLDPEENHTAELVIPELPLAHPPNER

| IC50 (PD-1/PD-L1) [nM] | SMILES | EC50 [1] [nM] |
| --- | --- | --- |
| < 1 | COc1cc(/C=C/c2cccc(-c3cccc(NC(=O)c4ccc(CN5CC[C@@H](O)C5)cn4)c3C)c2C)c(C(F)(F)F)cc1CN1CC[C@H](C(=O)O)C1 [Z-97] | 2 |
| 1 | Cc1cc(/C=C/c2cccc(-c3cccc(NC(=O)c4ccc(CN5CC[C@@H](O)C5)cn4)c3C)c2C)c(C(F)(F)F)cc1CN1CC[C@@H](C(=O)O)C1 [Z-90] | 24 |
| 1 | COc1cc(/C=C/c2cccc(-c3cccc(-c4nc5cc(CN6CC[C@@H](C(=O)O)C6)cc(C#N)c5o4)c3C)c2C)c(C(F)(F)F)cc1CN1CC[C@@H](O)C1 [Z-21, (R)-1-((7-cyano-2-(3′-((E)-4-(((R)-3-hydroxypyrrolidin-1-yl)methyl)-5-methoxy-2-(trifluoromethyl)styryl)-2,2′-dimethyl-[1,1′-biphenyl]-3-yl)benzo[d]oxazol-5-yl)methyl) pyrrolidine-3-carboxylic Acid] | 5 |
| 1 | Cc1cc(/C=C/c2nccc(-c3cccc(NC(=O)c4ccc(CNCCO)cn4)c3C)c2C#N)c(Cl)cc1CN1CCCC[C@H]1C(=O)O [Z-2, (S, E)-1-(5-chloro-4-(2-(3-cyano-4-(3-(5-(((2-hydroxyethyl)amino)methyl)picolinamido)-2-methylphenyl)pyridin-2-yl)vinyl)-2-methylbenzyl)piperidine-2-carboxylic Acid] | 79 |
| 4 | COc1cc(/C=C/c2cccc(-c3cccc(-c4nc5cc(CN6CC[C@@H](O)C6)cc(C#N)c5o4)c3C)c2C)c(C(F)(F)F)cc1CN1CCCC[C@H]1C(=O)O [Z-26] | 39 |
| 1 | COc1cc(/C=C/c2cccc(-c3cccc(NC(=O)c4nc5c(n4C)CCN(C(C)C)C5)c3C)c2C)c(C(F)(F)F)cc1CN1CC[C@@H](C(=O)O)C1 [Z-134, (R,E)-1-(4-(2-(3′-(5-isopropyl-1-methyl-4,5,6,7-tetrahydro-1H-imidazo[4,5-c]pyridine-2-carboxamido)-2,2′-dimethyl-[1,1′-biphenyl]-3-yl)vinyl)-2-methoxy-5-(trifluoromethyl)benzyl)pyrrolidine-3-carboxylic Acid] | 91 |
| < 1 | COC(=O)C[C@H](O)CNCc1cc(C(F)(F)F)c(/C=C/c2cccc(-c3cccc(NC(=O)c4cc(OC)c(CN5CC[C@@H](O)C5)cn4)c3C)c2C)cc1OC [Z-128] | 39 |
| 2 | COc1cc(/C=C/c2cccc(-c3cccc(-c4nc5cc(CN6CC[C@H](C(=O)O)C6)cc(C#N)c5o4)c3C)c2C)c(C(F)(F)F)cc1CN1CC[C@@H](O)C1 [Z-35] | 29 |
| 1 | COc1cc(/C=C/c2cccc(-c3cccc(-c4nc5cc(CN6CC[C@@H](C(=O)O)C6)cc(C#N)c5o4)c3Cl)c2C)c(C(F)(F)F)cc1CN1CC[C@@H](O)C1 [Z-42] | 64 |
| 1 | COc1cc(/C=C/c2cccc(-c3cccc(NC(=O)c4nc5c(n4C)CCN([C@H]4CC[C@@H](O)CC4)C5)c3C)c2C)c(C(F)(F)F)cc1CN1CC[C@@H](C(=O)O)C1 [Z-131, (R)-1-(4-((E)-2-(3′-(5-((1s,4s)-4-hydroxycyclohexyl)-1-methyl-4,5,6,7-tetrahydro-1H-imidazo[4,5-c]pyridine-2-carboxamido)-2,2′-dimethyl-[1,1′-biphenyl]-3-yl)vinyl)-2-methoxy-5-(trifluoromethyl)benzyl)pyrrolidine-3-carboxylic Acid] | 124 |
| 1 | COc1cc(C(=O)Nc2cccc(-c3cccc(/C=C/c4cc(CN5CC[C@@H](C(=O)O)C5)ccc4C(F)(F)F)c3C)c2C)ncc1CN1CC[C@@H](O)C1 [Z-124] | 109 |
| 1 | COc1cc(/C=C/c2cccc(-c3cccc(NC(=O)c4ccc(CN5CC[C@@H](O)C5)cn4)c3C#N)c2C)c(C(F)(F)F)cc1CN1CC[C@@H](C(=O)O)C1 [Z-105] | 14 |
| 1 | Cc1cc(/C=C/c2nccc(-c3cccc(NC(=O)c4ccc(CN5CC[C@@H](O)C5)cn4)c3C)c2C#N)c(C(F)(F)F)cc1CN1CC[C@@H](C(=O)O)C1 [Z-101] | 122 |

More lines, now with the values behind:

| SMILES | IC50 (PD-1/PD-L1) [nM] | EC50 [1] [nM] |
| --- | --- | --- |
| COc1cc(/C=C/c2cccc(-c3cccc(NC(=O)c4cc(CN5CC[C@@H](O)C5)ccn4)c3C)c2C)c(C(F)(F)F)cc1CN1CC[C@@H](C(=O)O)C1 [Z-120] | 1 | 15 |
| COc1cc(/C=C/c2cccc(-c3cccc(NC(=O)c4cc(OC)c(CN5CC[C@@H](O)C5)cn4)c3C)c2C)c(C(F)(F)F)cc1CN1CCC(C(=O)O)CC1 [Z-122] | 1 | 18 |
| Cc1cc(/C=C/c2cccc(-c3cccc(NC(=O)c4ccc(CN5CC[C@@H](O)C5)cn4)c3C)c2C)c(Cl)cc1CN1CC[C@@H](C(=O)O)C1 [Z-86] | 1 | 38 |
| COc1cc(/C=C/c2cccc(-c3cccc(-c4nc5cc(CN6CC[C@@H](O)C6)cc(C#N)c5o4)c3C)c2C)c(C(F)(F)F)cc1CN1CCC[C@H]1C(=O)O [Z-36, (4-((E)-2-(3′-(7-cyano-5-(((R)-3-hydroxypyrrolidin-1-yl)methyl)benzo[d]oxazol-2-yl)-2,2′-dimethyl-[1,1′-biphenyl]-3-yl)vinyl)-2-methoxy-5-(trifluoromethyl)benzyl)-L-proline] | 2 | 50 |
| COc1cc(/C=C/c2cccc(-c3cccc(-c4ccc(CNC[C@@H]5CCC(=O)N5)c(OC)n4)c3C)c2C)c(C(F)(F)F)cc1CN1CC[C@@H](C(=O)O)C1 [Z-54, (R)-1-(2-methoxy-4-((E)-2-(3′-(6-methoxy-5-(((((S)-5-oxopyrrolidin-2-yl)methyl)amino)methyl)pyridin-2-yl)-2,2′-dimethyl-[1,1′-biphenyl]-3-yl)vinyl)-5-(trifluoromethyl)benzyl)pyrrolidine-3-carboxylic Acid] | 1 | 149 |
| COc1cc(/C=C/c2cccc(-c3cccc(Nc4nccc5cc(CN6CC[C@@H](O)C6)cnc45)c3C)c2C)c(C(F)(F)F)cc1CN1CC[C@@H](C(=O)O)C1 [Z-8] | 2 | 47 |
| COc1cc(/C=C/c2cccc(-c3cccc(NC(=O)c4ccc(CN5CC[C@@H](O)C5)cn4)c3C)c2C)c(C(F)(F)F)cc1CN1CCCC(C(=O)O)C1 (stereo partly drawn) [Z-106] | 1 | 20 |
| COc1cc(/C=C/c2cccc(-c3cccc(-c4nc5cc(CN6CC[C@@H](C(=O)O)C6)cc(C#N)c5o4)c3C)c2C)c(C(F)(F)F)cc1CNCCO [Z-33] | 1 | 74 |
| Cc1cc(/C=C/c2nccc(-c3cccc(NC(=O)c4ccc(CN5CC[C@@H](O)C5)cn4)c3C)c2Cl)c(Cl)cc1CN1CCCC[C@H]1C(=O)O [Z-83] | 1 | 113 |
| COc1cc(C(=O)Nc2cccc(-c3cccc(/C=C/c4cc(OC)c(CN5CC[C@@H](C(=O)O)C5)cc4C(F)(F)F)c3C)c2C)ncc1CN1CC[C@@H](O)C1 [Z-117] | 1 | 13 |
| COC(=O)[C@@H]1CCN(Cc2cc(C(F)(F)F)c(/C=C/c3cccc(-c4cccc(NC(=O)c5cc(OC)c(CN6CC[C@@H](O)C6)cn5)c4C)c3C)cc2OC)C1 [Z-133] | 2 | 31 |
| COc1cc(/C=C/c2cccc(-c3cccc(-c4nc5cc(CN6CC[C@H](C(=O)O)C6)cc(C#N)c5o4)c3C)c2C)c(C(F)(F)F)cc1CN1CC[C@H](O)C1 [Z-30] | 2 | 104 |
| COc1cc(/C=C/c2cccc(-c3cccc(NC(=O)c4ccc(CNC[C@@H]5CCC(=O)N5)cn4)c3C)c2C)c(C(F)(F)F)cc1CN1CC[C@@H](C(=O)O)C1 [Z-110, (R)-1-(4-((E)-2-(2,2′-dimethyl-3′-(5-(((((S)-5-oxopyrrolidin-2-yl)methyl)amino)methyl)picolinamido)-[1,1′-biphenyl]-3-yl)vinyl)-2-methoxy-5-(trifluoromethyl)benzyl)pyrrolidine-3-carboxylic Acid] | 1 | 153 |
| Cc1cc(/C=C/c2cccc(-c3cccc(-c4nc5cc(CN6CC[C@@H](C(=O)O)C6)cc(C#N)c5o4)c3C)c2C)c(C(F)(F)F)cc1CN1CC[C@@H](O)C1 [Z-18, (R)-1-((7-cyano-2-(3′-((E)-4-(((R)-3-hydroxypyrrolidin-1-yl)methyl)-5-methyl-2-(trifluoromethyl)styryl)-2,2′-dimethyl-[1,1′-biphenyl]-3-yl)benzo[d]oxazol-5-yl)methyl)pyrrolidine-3-carboxylic Acid] | 1 | 142 |
| COc1cc(/C=C/c2cccc(-c3cccc(NC(=O)c4ccc(CN5CC[C@@H](O)C5)cn4)c3Cl)c2C)c(C(F)(F)F)cc1CN1CC[C@@H](C(=O)O)C1 [Z-80] | 1 | 36 |
| Cc1cc(/C=C/c2nccc(-c3cccc(NC(=O)c4ccc(CN5CC[C@@H](O)C5)cn4)c3Cl)c2C)c(Cl)cc1CN1CC[C@@H](C(=O)O)C1 [Z-76] | 1 | 361 |
| COc1cc(/C=C/c2cccc(-c3cccc(Nc4nccc5cc(CN6CC[C@@H](O)C6)cnc45)c3C)c2C)c(C(F)(F)F)cc1CN1CCC[C@H]1C(=O)O [Z-11] | 1 | 137 |
